Values joined by “and” are separate entries in the source; they are usually repeats but may differ in a detail not shown here. Equal values may be shown once. Read-outs that look alike come from different tables or passages of the source. Marks after values point to notes of the source that are not given here.
Key:
[1] = 156 ppm sodium nitrite
Experimental: (§1) After thermal processing and chilling according to USDA-FSIS Appendix A—Thermal processing (71° C.) and B—Cooling procedures (2° C.) guidelines, the frankfurters will be vacuum packaged and stored under refrigeration (2° C.) until analyzed at 0, 14, 28 and 56 days post manufacture.
Cooked sample water activity was measured (in triplicate) using an Aqualab Model Series 3 water activity meter.
(§2) Samples were vacuum packaged and refrigerated and evaluated on Day 1, 7, 14, 28 and 56 post manufacture. Differences between treatment and control samples will be determined using Tukey's Least Significant Difference procedure at P≤0.05 level. The experiment was replicated three times.

[2] = test system: nitric oxide synthase system; conditions: beef; for Residual Nitrite, LSMean main effect of Temperature: sodium nitrite
Experimental: (§3) Fresh ground meat (beef, pork or poultry) was separated in ˜0.5 Kg batches and mixed with 2% salt and 10% added water. […] Each individual batch was mixed (1 min) in a food processor, removed for temperature and pH analyses and then placed into a jerky extruder tube. Approximately 25 g of sample were extruded into 50 mL centrifuge, then capped and labeled and placed into a controlled water batch and heated to a designated internal endpoint temperature (132, 158, or 165° F.).
(§4) Samples also contained 547 ppm sodium erythorbate, a cure accelerator (Phase I) and without sodium erythorbate (Phase II). Samples were placed into test tubes and heated in a controlled water bath to 132, 158 and 165° F. Samples were held in a 40° F. cooler for seven days then tested for residual nitrite. Residual nitrite was tested after deproteinization for amino acid analysis by HPLC. Determination of nitrite (UV/VIS Spectrophotometric Method) was used to detect any residual nitrite for best results in detecting minute amounts of nitrite. Residual nitrite levels were read in a 96 well plate reader at 540 nm.
(§5) Both phases of the experiment were designed as a factorial (concentration level and endpoint temperature) randomized complete block design with three replications. […] Least squares means were generated and Tukey's HSD used to determine significance at P≤0.05.

NOS system [3] = assay: NO-heme, total heme, nitrosylation in test beef frankfurters (Example 12); conditions: 156 ppm sodium nitrite with sodium erythorbate 547 ppm
Experimental: (§6) The remaining nonmeat ingredients were added (except the antimicrobial) and chopped at 2000 rpm for one minute. Protecta (sodium acetate antimicrobial) was added and the emulsion chopped at 4000 rpm for one minute. The emulsion was evacuated and placed into a vacuum assisted stuffer where each test emulsion was stuffed and twist linked into 22 mm cellulose casings weighing 40 g each. The frankfurter links were hung on smokehouse trucks, placed into a commercial smokehouse and thermally processed to 160° F. (Table 18).
(§7) After thermal processing and chilling (40° F.), the casings were peeled from the frankfurters and were vacuum packaged and stored under refrigerated conditions for residual nitrite and nitrosylation. […] This was done to determine if the L-arginine could the NOS system to generate sufficient NO for cure color development and residual nitrite for antioxidant and antimicrobial effect.

[4] = test system: nitric oxide synthase system; conditions: 156 ppm sodium nitrite
Experimental: as §1
The samples were analyzed for residual nitrite after deproteinization by sample preparation for amino acid analysis by HPLC.
as §2

[5] = test system: nitric oxide synthase system; conditions: poultry; for Residual Nitrite, LSMean main effect of Temperature: sodium nitrite
Experimental: as §3, §4, §5

[6] = test system: nitric oxide synthase system; conditions: pork; for Residual Nitrite, LSMean main effect of Temperature: sodium nitrite
Experimental: as §3, §4, §5

NOS system [7] = assay: Residual nitrite in test beef frankfurters (Example 12); conditions: 156 ppm sodium nitrite with sodium erythorbate 547 ppm
Experimental: as §6, §7

[8] = Phase I, with 547 ppm sodium erythorbate, 120 ppm sodium nitrite
[9] = Phase I, with 547 ppm sodium erythorbate, 120 ppm sodium nitrite, 132° F.
[10] = Phase I, with 547 ppm sodium erythorbate, 120 ppm sodium nitrite, 158° F.
[11] = Phase I, with 547 ppm sodium erythorbate, 120 ppm sodium nitrite, 165° F.
[12] = Phase I, with 547 ppm sodium erythorbate, 156 ppm sodium nitrite
[13] = Phase I, with 547 ppm sodium erythorbate, 156 ppm sodium nitrite, 132° F.
[14] = Phase I, with 547 ppm sodium erythorbate, 156 ppm sodium nitrite, 158° F.
[15] = Phase I, with 547 ppm sodium erythorbate, 156 ppm sodium nitrite, 165° F.
[16] = Phase I, with 547 ppm sodium erythorbate, 200 ppm sodium nitrite
[17] = Phase I, with 547 ppm sodium erythorbate, 200 ppm sodium nitrite, 132° F.
[18] = Phase I, with 547 ppm sodium erythorbate, 200 ppm sodium nitrite, 158° F.
[19] = Phase I, with 547 ppm sodium erythorbate, 200 ppm sodium nitrite, 165° F.
[20] = Phase I, with 547 ppm sodium erythorbate, 132° F.
[21] = Phase I, with 547 ppm sodium erythorbate, 158° F.
[22] = Phase I, with 547 ppm sodium erythorbate, 165° F.
[23] = Phase II, without 547 ppm sodium erythorbate, 120 ppm sodium nitrite
[24] = Phase II, without 547 ppm sodium erythorbate, 120 ppm sodium nitrite, 132° F.
[25] = Phase II, without 547 ppm sodium erythorbate, 120 ppm sodium nitrite, 158° F.
[26] = Phase II, without 547 ppm sodium erythorbate, 120 ppm sodium nitrite, 165° F.
[27] = Phase II, without 547 ppm sodium erythorbate, 156 ppm sodium nitrite
[28] = Phase II, without 547 ppm sodium erythorbate, 156 ppm sodium nitrite, 132° F.
[29] = Phase II, without 547 ppm sodium erythorbate, 156 ppm sodium nitrite, 158° F.
[30] = Phase II, without 547 ppm sodium erythorbate, 156 ppm sodium nitrite, 165° F.
[31] = Phase II, without 547 ppm sodium erythorbate, 200 ppm sodium nitrite
[32] = Phase II, without 547 ppm sodium erythorbate, 200 ppm sodium nitrite, 132° F.
[33] = Phase II, without 547 ppm sodium erythorbate, 200 ppm sodium nitrite, 158° F.
[34] = Phase II, without 547 ppm sodium erythorbate, 200 ppm sodium nitrite, 165° F.
[35] = Phase II, without 547 ppm sodium erythorbate, 132° F.
[36] = Phase II, without 547 ppm sodium erythorbate, 158° F.
[37] = Phase II, without 547 ppm sodium erythorbate, 165° F.

Q: Which “water activity (Aw)” value ([1]; Day 1) does the source give for `O=NO` [Sodium Nitrite, Sodium nitrite, reference compound] here?
A: 0.979

Q: What about the “water activity (Aw)” value ([1]; Day 7) of the same compound?
A: 0.979

Q: What about the “water activity (Aw)” value ([1]; Day 14) of the same compound?
A: 0.972

Q: And the “water activity (Aw)” value ([1]; Day 28)?
A: 0.978

Q: What about the “Residual Nitrite, LSMean main effect of Concentration” value (“Residual Nitrite … of Concentration” below) [2, 8] of the same compound?
A: 75.33 ppm

Q: And the “Residual Nitrite, LSMean Conc × Temp” value [2, 9]?
A: 119.32^a ppm

Q: What about the “Residual Nitrite, LSMean Conc × Temp” value [2, 10] of the same compound?
A: 60.08^bc ppm

Q: And the “Residual Nitrite, LSMean Conc × Temp” value [2, 11]?
A: 46.59^c ppm

Q: What about the “Residual Nitrite … of Concentration” value [2, 12] of the same compound?
A: 81.08 ppm

Q: And the “Residual Nitrite, LSMean Conc × Temp” value [2, 13]?
A: 107.54^ab ppm

Q: And the “Residual Nitrite, LSMean Conc × Temp” value [2, 14]?
A: 77.51^abc ppm

Q: What about the “Residual Nitrite, LSMean Conc × Temp” value [2, 15] of the same compound?
A: 58.18^bc ppm

Q: And the “Residual Nitrite … of Concentration” value [2, 16]?
A: 72.05 ppm

Q: And the “Residual Nitrite, LSMean Conc × Temp” value [2, 17]?
A: 86.41^abc ppm

Q: And the “Residual Nitrite, LSMean Conc × Temp” value [2, 18]?
A: 47.02^c ppm

Q: And the “Residual Nitrite, LSMean Conc × Temp” value [2, 19]?
A: 82.73^ab ppm

Q: And the “Residual Nitrite, LSMean main effect of Temperature” value (shortened to “Residual Nitrite … of Temperature”) [2, 20]?
A: 104.42^a ppm and 104.42 ppm

Q: And the “Residual Nitrite … of Temperature” value [2, 21]?
A: 61.54^b ppm and 61.54 ppm

Q: What about the “Residual Nitrite … of Temperature” value [2, 22] of the same compound?
A: 62.50^b ppm and 62.50 ppm

Q: And the “Residual Nitrite … of Concentration” value [2, 23]?
A: 182.18 ppm

Q: And the “Residual Nitrite, LSMean Conc × Temp” value [2, 24]?
A: 187.92 ppm

Q: And the “Residual Nitrite, LSMean Conc × Temp” value [2, 25]?
A: 204.95 ppm

Q: What about the “Residual Nitrite, LSMean Conc × Temp” value [2, 26] of the same compound?
A: 153.68 ppm

Q: What about the “Residual Nitrite … of Concentration” value [2, 27] of the same compound?
A: 202.15 ppm

Q: What about the “Residual Nitrite, LSMean Conc × Temp” value [2, 28] of the same compound?
A: 199.54 ppm

Q: And the “Residual Nitrite, LSMean Conc × Temp” value [2, 29]?
A: 214.72 ppm

Q: And the “Residual Nitrite, LSMean Conc × Temp” value [2, 30]?
A: 192.19 ppm

Q: And the “Residual Nitrite … of Concentration” value [2, 31]?
A: 196.51 ppm

Q: What about the “Residual Nitrite, LSMean Conc × Temp” value [2, 32] of the same compound?
A: 184.28 ppm

Q: What about the “Residual Nitrite, LSMean Conc × Temp” value [2, 33] of the same compound?
A: 202.30 ppm

Q: And the “Residual Nitrite, LSMean Conc × Temp” value [2, 34]?
A: 202.96 ppm

Q: What about the “Residual Nitrite … of Temperature” value [2, 35] of the same compound?
A: 190.58 ppm

Q: And the “Residual Nitrite … of Temperature” value [2, 36]?
A: 207.32 ppm

Q: And the “Residual Nitrite … of Temperature” value [2, 37]?
A: 182.94 ppm

Q: What about the NO-Heme (NOS system [3]) of the same compound?
A: 17.88^b ppm

Q: What about the Nitrosylation (NOS system [3]) of the same compound?
A: 94.93^b %

Q: What about the “Total Heme” value (NOS system [3]) of the same compound?
A: 79.11^a ppm

Q: What about the Nitrosylation (NOS system [3]; listed as sodium nitrite) of the same compound?
A: 94.93%

Q: What about the residual sodium nitrite ([4]; Day 1) of the same compound?
A: 85.05

Q: What about the residual sodium nitrite ([4]; Day 7) of the same compound?
A: 74.53

Q: What about the residual sodium nitrite ([4]; Day 14) of the same compound?
A: 121.03

Q: And the residual sodium nitrite ([4]; Day 28)?
A: 73.73

Q: And the “Residual Nitrite … of Concentration” value [5, 8]?
A: 64.56^b ppm and 64.56 ppm

Q: What about the “Residual Nitrite, LSMean Conc × Temp” value [5, 9] of the same compound?
A: 66.48 ppm

Q: And the “Residual Nitrite, LSMean Conc × Temp” value [5, 10]?
A: 68.47 ppm

Q: What about the “Residual Nitrite, LSMean Conc × Temp” value [5, 11] of the same compound?
A: 58.74 ppm

Q: And the “Residual Nitrite … of Concentration” value [5, 12]?
A: 78.51^ab ppm and 78.51 ppm

Q: What about the “Residual Nitrite, LSMean Conc × Temp” value [5, 13] of the same compound?
A: 80.52 ppm

Q: And the “Residual Nitrite, LSMean Conc × Temp” value [5, 14]?
A: 85.36 ppm

Q: What about the “Residual Nitrite, LSMean Conc × Temp” value [5, 15] of the same compound?
A: 69.65 ppm

Q: And the “Residual Nitrite … of Concentration” value [5, 16]?
A: 90.59^a ppm and 90.59 ppm

Q: And the “Residual Nitrite, LSMean Conc × Temp” value [5, 17]?
A: 107.26 ppm

Q: What about the “Residual Nitrite, LSMean Conc × Temp” value [5, 18] of the same compound?
A: 86.10 ppm

Q: And the “Residual Nitrite, LSMean Conc × Temp” value [5, 19]?
A: 78.41 ppm

Q: And the “Residual Nitrite … of Temperature” value [5, 20]?
A: 84.75^a ppm and 84.75 ppm

Q: What about the “Residual Nitrite … of Temperature” value [5, 21] of the same compound?
A: 79.98^ab ppm and 79.98 ppm

Q: What about the “Residual Nitrite … of Temperature” value [5, 22] of the same compound?
A: 68.93^b ppm and 68.93 ppm

Q: And the “Residual Nitrite, LSMean Conc × Temp” value [5, 24]?
A: 171.64^cde ppm

Q: What about the “Residual Nitrite, LSMean Conc × Temp” value [5, 25] of the same compound?
A: 148.63^e ppm

Q: And the “Residual Nitrite, LSMean Conc × Temp” value [5, 26]?
A: 162.23^de ppm

Q: What about the “Residual Nitrite, LSMean Conc × Temp” value [5, 28] of the same compound?
A: 202.54^bc ppm

Q: And the “Residual Nitrite, LSMean Conc × Temp” value [5, 29]?
A: 177.54^cde ppm

Q: What about the “Residual Nitrite, LSMean Conc × Temp” value [5, 30] of the same compound?
A: 165.70^cde ppm

Q: And the “Residual Nitrite, LSMean Conc × Temp” value [5, 32]?
A: 249.27^a ppm

Q: And the “Residual Nitrite, LSMean Conc × Temp” value [5, 33]?
A: 223.86^ab ppm

Q: What about the “Residual Nitrite, LSMean Conc × Temp” value [5, 34] of the same compound?
A: 189.46^cd ppm

Q: What about the “Residual Nitrite … of Temperature” value [5, 35] of the same compound?
A: 207.82^a ppm and 207.82 ppm

Q: What about the “Residual Nitrite … of Temperature” value [5, 36] of the same compound?
A: 183.34^b ppm and 183.34 ppm

Q: What about the “Residual Nitrite … of Temperature” value [5, 37] of the same compound?
A: 172.46^b ppm and 172.46 ppm

Q: What about the “Residual Nitrite … of Concentration” value [6, 8] of the same compound?
A: 42.30^b ppm and 42.30 ppm

Q: And the “Residual Nitrite, LSMean Conc × Temp” value [6, 9]?
A: 58.68 ppm

Q: What about the “Residual Nitrite, LSMean Conc × Temp” value [6, 10] of the same compound?
A: 41.15 ppm

Q: What about the “Residual Nitrite, LSMean Conc × Temp” value [6, 11] of the same compound?
A: 27.07 ppm

Q: What about the “Residual Nitrite … of Concentration” value [6, 12] of the same compound?
A: 62.37^a ppm and 62.37 ppm

Q: And the “Residual Nitrite, LSMean Conc × Temp” value [6, 13]?
A: 66.93 ppm

Q: And the “Residual Nitrite, LSMean Conc × Temp” value [6, 14]?
A: 46.37 ppm

Q: And the “Residual Nitrite, LSMean Conc × Temp” value [6, 15]?
A: 73.82 ppm

Q: And the “Residual Nitrite … of Concentration” value [6, 16]?
A: 68.22^a ppm and 68.22 ppm

Q: And the “Residual Nitrite, LSMean Conc × Temp” value [6, 17]?
A: 63.47 ppm

Q: And the “Residual Nitrite, LSMean Conc × Temp” value [6, 18]?
A: 57.10 ppm

Q: And the “Residual Nitrite, LSMean Conc × Temp” value [6, 19]?
A: 84.08 ppm

Q: And the “Residual Nitrite … of Temperature” value [6, 20]?
A: 63.03 ppm

Q: What about the “Residual Nitrite … of Temperature” value [6, 21] of the same compound?
A: 48.21 ppm

Q: What about the “Residual Nitrite … of Temperature” value [6, 22] of the same compound?
A: 61.66 ppm

Q: And the “Residual Nitrite … of Concentration” value [6, 23]?
A: 214.53^a ppm and 214.53 ppm

Q: And the “Residual Nitrite, LSMean Conc × Temp” value [6, 24]?
A: 173.70^ab ppm

Q: And the “Residual Nitrite, LSMean Conc × Temp” value [6, 25]?
A: 178.90^ab ppm

Q: And the “Residual Nitrite, LSMean Conc × Temp” value [6, 26]?
A: 164.54^b ppm

Q: What about the “Residual Nitrite … of Concentration” value [6, 27] of the same compound?
A: 183.17^b ppm and 183.17 ppm

Q: And the “Residual Nitrite, LSMean Conc × Temp” value [6, 28]?
A: 208.65^ab ppm

Q: And the “Residual Nitrite, LSMean Conc × Temp” value [6, 29]?
A: 166.20^b ppm

Q: And the “Residual Nitrite, LSMean Conc × Temp” value [6, 30]?
A: 174.67^ab ppm

Q: And the “Residual Nitrite … of Concentration” value [6, 31]?
A: 172.38^b ppm and 172.38 ppm

Q: And the “Residual Nitrite, LSMean Conc × Temp” value [6, 32]?
A: 196.48^ab ppm

Q: And the “Residual Nitrite, LSMean Conc × Temp” value [6, 33]?
A: 232.01^a ppm

Q: What about the “Residual Nitrite, LSMean Conc × Temp” value [6, 34] of the same compound?
A: 215.08^ab ppm

Q: What about the “Residual Nitrite … of Temperature” value [6, 35] of the same compound?
A: 192.61 ppm

Q: And the “Residual Nitrite … of Temperature” value [6, 36]?
A: 186.00 ppm

Q: What about the “Residual Nitrite … of Temperature” value [6, 37] of the same compound?
A: 185.85 ppm

Q: What about the Nitrite (NOS system [7]) of the same compound?
A: 21.27^a ppm

Q: And the Nitrite (NOS system [7]; listed as sodium nitrite)?
A: 21.27 ppm and ~18 ppm

Reference: US20230029496A1, “AMINO ACID ALTERNATIVE CURING SYSTEM” (THE TEXAS A&M UNIVERSITY SYSTEM, priority 2019, published 2023)
